{"source": "patent US11866401B2", "about": "“Salicyl fumarate derivative and its application in the treatment of Parkinson's disease and other neurodegenerative diseases” (CHONGQING NEUROPARK BIOSCIENCE CO., LTD., priority 2017, dated 2024)", "key": {"[1]": {"test_system": "MPTP-induced dopaminergic neuron-damaged PD mouse models", "assay": "MPTP-induced dopaminergic neuron damage PD mouse model, dose response protection and safety", "assay_type": "in vivo, mice", "settings": "for lowest dosage for protective effect: dopamine neuron protection; for dosage where toxic effects began to appear: mouse, in vivo, ip", "protocol": "Using MSF and ESF to conduct therapeutic studies with widely accepted MPTP-induced dopaminergic neuron-damaged PD mouse models. […] For the experimental groups of MSF and ESF, 10 dose groups were used for each drug. 10 mice in each group. Both the experimental group and the control group used intraperitoneal administration. The control group was treated with DMF. Statistically significant protective effects of dopamine neurons were found, and the dose-effect relationship was observed."}, "glutathione (GSH)": {"test_system": "glutathione (GSH)", "assay": "In vitro cell experiments, intracellular glutathione concentration", "assay_type": "cell-based"}, "[2]": {"test_system": "models of chronic MPTP-induced dopamine neuron damage in mice", "assay": "Chronic MPTP-induced dopamine neuron damage in mice", "assay_type": "in vivo", "settings": "200 mg/kg/d, chronic MPTP model"}, "[3]": {"test_system": "Nrf2 knockout mice with MPTP-induced dopaminergic neuronal damage", "assay": "MPTP experiments on transgenic mice with the Nrf2 gene knocked out", "assay_type": "in vivo", "text": "Inferring from the inclusion of salicyl in their molecule structure, this new target may be associated with anti-neuroinflammation."}, "[4]": {"assay": "HPLC level of MSF and ESF in peripheral blood, liver and brain tissue after intraperitoneal injection", "assay_type": "in vivo", "settings": "after intraperitoneal injection in mice", "text": "Unlike the positive control drug DMF which worked differently."}, "[5]": {"assay": "Preliminary experiments on pharmacological activities", "settings": "compared with methyl and ethyl salicyl fumarate", "text": "7. The applicants used the same fore-mentioned synthesis routes to perform esterification of salicylic acid and fumarate esters. They obtained propyl salicyl fumarate (compound structural formula shown as C), isopropyl salicyl fumarate (compound structural formula shown as D), and butyl salicyl fumarate (compound structural formula shown as E) respectively."}, "MS patients [6]": {"test_system": "MS patients", "settings": "CONFIRM; cited from earlier work"}, "[7]": {"test_system": "MPTP-induced mouse PD models", "settings": "cited from earlier work"}, "MS patients [8]": {"test_system": "MS patients", "settings": "DEFINE; cited from earlier work"}, "glutathione": {"test_system": "glutathione", "settings": "unlike DMF; cited from earlier work"}, "[9]": {"settings": "intraperitoneal administration, MPTP mice"}}, "note": "Counter-ions that a name gives are not always drawn.", "data": [{"smiles": "CCOC(=O)/C=C/C(=O)OCc1ccccc1O", "note": "[ESF, ethyl salicyl fumarate]", "values": [{"measurement": "protective effects of dopamine neurons compared to DMF", "setting": "[1]; [9]", "result": "more significant protective effects"}, {"measurement": "lowest dosage for protective effect", "setting": "[1]; [9]", "result": 10, "unit": "mg/kg/day"}, {"measurement": "dosage where toxic effects began to appear", "setting": "[1]", "result": "> 500", "unit": "mg/kg/day"}, {"measurement": "effect on glutathione concentration in the cell", "setting": "glutathione (GSH)", "result": "no effect on the concentration of glutathione in the cell"}, {"measurement": "dopamine neuron protection", "setting": "[2]", "result": "significant dopamine neuron protection"}, {"measurement": "dopaminergic neuron protective effect", "setting": "[3]", "result": "still show significant protective effects"}, {"measurement": "entry into the brain through the blood-brain barrier", "setting": "[4]", "result": "can enter the brain through the blood-brain barrier"}, {"measurement": "molecular structure in the brain", "setting": "[4]", "result": "remains unchanged in the brain"}]}, {"smiles": "CCCOC(=O)/C=C/C(=O)Oc1ccccc1C(=O)O", "note": "[propyl salicyl fumarate]", "values": [{"measurement": "pharmacological activities", "setting": "[5]", "result": "lower than those of methyl salicyl fumarate and ethyl salicyl fumarate"}]}, {"smiles": "COC(=O)/C=C/C(=O)OCc1ccccc1O", "note": "[MSF, methyl salicyl fumarate]", "values": [{"measurement": "protective effects of dopamine neurons compared to DMF", "setting": "[1]; [9]", "result": "more significant protective effects"}, {"measurement": "lowest dosage for protective effect", "setting": "[1]; [9]", "result": 10, "unit": "mg/kg/day"}, {"measurement": "dosage where toxic effects began to appear", "setting": "[1]", "result": "> 500", "unit": "mg/kg/day"}, {"measurement": "effect on glutathione concentration in the cell", "setting": "glutathione (GSH)", "result": "no effect on the concentration of glutathione in the cell"}, {"measurement": "dopamine neuron protection", "setting": "[2]", "result": "significant dopamine neuron protection"}, {"measurement": "dopaminergic neuron protective effect", "setting": "[3]", "result": "still show significant protective effects"}, {"measurement": "entry into the brain through the blood-brain barrier", "setting": "[4]", "result": "can enter the brain through the blood-brain barrier"}, {"measurement": "molecular structure in the brain", "setting": "[4]", "result": "remains unchanged in the brain"}]}, {"smiles": "COC(=O)/C=C/C(=O)OC", "note": "[DMF, dimethyl fumarate, reference compound]", "values": [{"measurement": "dosage where DMF showed toxic effect", "setting": "[1]; [9]", "result": "> 200", "unit": "mg"}, {"measurement": "lowest dosage for protective effect", "setting": "[1]; [9]", "result": 50, "unit": "mg/kg/day"}, {"measurement": "effect on glutathione concentration in the cell", "setting": "glutathione (GSH)", "result": "had the effect of depleting glutathione"}, {"measurement": "reduction in recurrence", "setting": "MS patients [6]", "result": 34, "unit": "%"}, {"measurement": "dopaminergic neuron protective effect", "setting": "[3]", "result": "lost the dopaminergic neuron protective effect"}, {"measurement": "protective effects against the neural toxicity of MPTP", "setting": "[7]", "result": "exhibit protective effects against the neural toxicity of MPTP"}, {"measurement": "reduction in occurrences of disability", "setting": "MS patients [8]", "result": 38, "unit": "%"}, {"measurement": "reduction in occurrences of recurrence", "setting": "MS patients [8]", "result": 49, "unit": "%"}]}, {"smiles": "CC(C)OC(=O)/C=C/C(=O)Oc1ccccc1C(=O)O", "note": "[isopropyl salicyl fumarate]", "values": [{"measurement": "pharmacological activities", "setting": "[5]", "result": "lower than those of methyl salicyl fumarate and ethyl salicyl fumarate"}]}, {"smiles": "COC(=O)/C=C/C(=O)O", "note": "[MMF, monomethyl fumarate]", "values": [{"measurement": "glutathione consumption, inhibition of mitochondrial and glycolysis functions", "setting": "glutathione", "result": "does not consume glutathione and inhibit mitochondrial and glycolysis functions"}]}, {"smiles": "CCCCOC(=O)/C=C/C(=O)Oc1ccccc1C(=O)O", "note": "[butyl salicyl fumarate]", "values": [{"measurement": "pharmacological activities", "setting": "[5]", "result": "lower than those of methyl salicyl fumarate and ethyl salicyl fumarate"}]}]}
